In brackets after ≈: the same amount, converted by molar mass.

Test system in one data set: not listed separately
Description: Aqueous solubility at pH 7.4. The note with it: aqueous.
For the molecule `CC(C)OC(=O)C1CN(C(=O)c2ccc(F)cc2)CC(C)(C)c2cc(C#N)[nH]c21` (stereo not given), the solubility – broadly, the dissolved amount per volume that the medium holds – was over 100 µg/mL.
In turn, `CC(C)OC(=O)C1CN(C(=O)c2cccc(Cl)c2)CC(C)(C)c2cc(C#N)[nH]c21` (stereo not given) yielded a solubility of 17 µg/mL (≈ 41.1 µM).
On the same count and under the same terms, in the case of `CC(C)OC(=O)C1CN(C(=O)c2ccc(F)c(F)c2)CC(C)(C)c2cc(C#N)[nH]c21` (stereo not given) it was 31 µg/mL (≈ 74.6 µM); in that of `CC(C)OC(=O)C1CN(C(=O)C2CCOCC2)CC(C)(C)c2cc(C#N)[nH]c21` (stereo not given), over 100 µg/mL.
Same read-out and setting: in the case of `CC(C)OC(=O)C1CN(C(=O)C2CCCCC2)CC(C)(C)c2cc(C#N)[nH]c21` (stereo not given) it was over 100 µg/mL; in that of `CC(C)OC(=O)C1CN(C(=O)c2ccc(C#N)cc2)CC(C)(C)c2cc(C#N)[nH]c21` (stereo not given), 21 µg/mL (≈ 51.9 µM).
As for `CC(C)OC(=O)C1CN(C(=O)c2cccc(F)c2)CC(C)(C)c2cc(C#N)[nH]c21` (stereo not given), the solubility was over 100 µg/mL.
`CC(C)OC(=O)C1CN(C(=O)c2ccc(Cl)cc2)CC(C)(C)c2cc(C#N)[nH]c21` (stereo not given): the concentration in solution (solubility) came to 5 µg/mL (≈ 12.1 µM).

The same data set, now with this note: buffer.
Consider `CC(C)OC(=O)C1=CN(C(=O)c2ccc(F)c(F)c2)CC(C)(C)c2cc(C#N)[nH]c21`, for which the solubility entry is listed as “Insoluble(BLD)”.
Still for that read-out and setting: with `CC(C)OC(=O)C1=CN(C(=O)C2CCCCC2)CC(C)(C)c2cc(C#N)[nH]c21` the entry was “Insoluble(BLD)”.
Consider `CC(C)OC(=O)C1=CN(C(=O)c2ccc(C#N)cc2)CC(C)(C)c2cc(C#N)[nH]c21`, for which the solubility result is recorded as “Insoluble(BLD)”.
`CC(C)OC(=O)C1=CN(C(=O)c2cccc(C(F)(F)F)c2)CC(C)(C)c2cc(C#N)[nH]c21`: the solubility entry was “Insoluble(BLD)”.
In the case of `CC(C)OC(=O)C1=CN(C(=O)c2ccc(F)cc2)CC(C)(C)c2cc(C#N)[nH]c21`, the solubility result is “Insoluble(BLD)”.
Same read-out and setting: with `CC(C)OC(=O)C1=CN(C(=O)c2cccs2)CC(C)(C)c2cc(C#N)[nH]c21` the entry was “Insoluble(BLD)”; with `CC(C)OC(=O)C1=CN(C(=O)c2cccc(Cl)c2)CC(C)(C)c2cc(C#N)[nH]c21`, “Insoluble(BLD)”.
On to `CC(C)OC(=O)C1=CN(C(=O)c2cccc(F)c2)CC(C)(C)c2cc(C#N)[nH]c21`, for which the solubility result is listed as “Insoluble(BLD)”.
Take `CC(C)OC(=O)C1=CN(C(=O)c2ccc(F)c(F)c2)CC(C)(C)c2c1[nH]c1ccccc21` [TUROFEXORATE ISOPROPYL]: the solubility entry is listed as “Insoluble(BLD)”.

The next data set deals with T1, Bile acid receptor (Homo sapiens, UniProt Q96RI1).
T1 sequence (Q96RI1 whole entry): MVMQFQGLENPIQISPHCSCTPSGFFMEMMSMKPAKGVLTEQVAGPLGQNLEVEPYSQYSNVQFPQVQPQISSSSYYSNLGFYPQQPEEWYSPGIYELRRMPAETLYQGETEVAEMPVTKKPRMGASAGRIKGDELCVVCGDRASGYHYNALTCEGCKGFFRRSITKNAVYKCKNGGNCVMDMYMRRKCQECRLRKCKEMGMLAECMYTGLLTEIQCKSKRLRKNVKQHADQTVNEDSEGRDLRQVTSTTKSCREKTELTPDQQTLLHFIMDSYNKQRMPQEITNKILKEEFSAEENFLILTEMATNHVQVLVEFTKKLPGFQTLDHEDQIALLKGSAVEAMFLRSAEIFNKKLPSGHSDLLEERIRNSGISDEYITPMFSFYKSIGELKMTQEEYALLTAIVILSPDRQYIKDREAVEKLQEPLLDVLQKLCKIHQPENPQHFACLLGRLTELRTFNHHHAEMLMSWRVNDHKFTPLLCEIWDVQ
Settings: not given
Regarding `CC(C)OC(=O)C1=CN(C(=O)c2ccc(F)c(F)c2)CC(C)(C)c2cc(C#N)[nH]c21`, it took 6.3 nM to reach a half-maximal effect (EC50).
Regarding `CC(C)OC(=O)C1=CN(C(=O)c2cccc(C(F)(F)F)c2)CC(C)(C)c2cc(C#N)[nH]c21`, it took 8.5 nM to reach a half-maximal effect (EC50).
Turning to `CC(C)OC(=O)C1=CN(C(=O)c2cccs2)CC(C)(C)c2cc(C#N)[nH]c21`, the response was half-maximal at 16 nM (EC50).
